# Patent publication US10800782B2, “Inhibitors of cellular metabolic processes” (Agios Pharmaceuticals, Inc., priority 2016, dated 2020)
# Target: T1, MAT2A (Homo sapiens, UniProt P31153)
# T1 construct: His6; made in house; host or cells: SF9 insect cells
# Assay: MAT2A biochemical assay (colorimetric inorganic phosphate detection, PiColorLock)
# Conditions: recombinant His6-tagged MAT2A 1 μg/ml; 60 minutes preincubation at 25° C.; L-Met 80 μM, ATP 100 μM; 60 minutes reaction; read at 623 nm; read-out: MAT2A Inhibition Score
# How it was run: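 His6-tagged human MAT2A (SF9-expressed, 1 μg/ml) converting L-Met and ATP to SAM in Tris pH 8.0, 50 mM KCl, 15 mM MgCl2, 300 uM EDTA, 0.005% BSA; 60 min at room temperature. Released phosphate detected colorimetrically with malachite green phosphomolybdate. Ten-point, three-fold compound dilution series.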
# T1 sequence (P31153 whole entry): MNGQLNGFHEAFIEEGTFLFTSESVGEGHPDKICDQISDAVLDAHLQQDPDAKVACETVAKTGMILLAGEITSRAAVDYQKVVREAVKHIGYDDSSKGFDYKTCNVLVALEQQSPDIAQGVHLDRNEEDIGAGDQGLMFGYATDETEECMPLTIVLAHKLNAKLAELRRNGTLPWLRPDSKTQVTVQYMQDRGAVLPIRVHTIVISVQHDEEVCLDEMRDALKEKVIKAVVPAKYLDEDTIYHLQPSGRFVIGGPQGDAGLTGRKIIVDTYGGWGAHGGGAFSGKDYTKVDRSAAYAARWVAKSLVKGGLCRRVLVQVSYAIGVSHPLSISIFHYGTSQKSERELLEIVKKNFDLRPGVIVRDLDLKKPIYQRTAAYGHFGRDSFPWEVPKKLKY
row,IC50 [nM],Structure (SMILES)
1,< 100,"COc1ccc(-c2c(Nc3ccncc3)[nH]c3c(C4=CCCCC4)c(-c4ccccc4)nn3c2=O)cc1 [Compound 297, 3-(cyclohex-1-en-1-yl)-6-(4-methoxyphenyl)-2-phenyl-5-(pyridin-4-ylamino)pyrazolo[1,5-a]pyrimidin-7(4H)-one]"
2,< 100,"O=c1c(-c2ccc3ncccc3c2)c(Nc2ccccn2)[nH]c2c(-c3ccccc3)c(-c3ccccc3)nn12 [Compound 168, 2,3-diphenyl-5-(pyridin-2-ylamino)-6-(quinolin-6-yl)pyrazolo[1,5-a]pyrimidin-7(4H)-one]"
3,< 100,"Cc1[nH]c2c(-c3ccccc3)c(-c3ccccc3)nn2c(=O)c1-c1ccc2ncccc2c1 [Compound 204, 5-methyl-2,3-diphenyl-6-(quinolin-6-yl)pyrazolo[1,5-a]pyrimidin-7(4H)-one]"
4,< 100,"O=c1c(-c2ccc(O)cc2)c(Nc2nc[nH]n2)[nH]c2c(-c3ccccc3)c(-c3ccccc3)nn12 [Compound 195, 5-((1H-1,2,4-triazol-3-yl)amino)-6-(4-hydroxyphenyl)-2,3-diphenylpyrazolo[1,5-a]pyrimidin-7(4H)-one]"
5,< 100,"COc1ccc(-c2c(Nc3ccncn3)[nH]c3c(C4=CCCCC4)c(-c4ccccc4)nn3c2=O)cc1 [Compound 155, 3-(cyclohex-1-en-1-yl)-6-(4-methoxyphenyl)-2-phenyl-5-(pyrimidin-4-ylamino)pyrazolo[1,5-a]pyrimidin-7(4H)-one]"
6,< 100,"COc1ccc(-c2c(Nc3ccccn3)[nH]c3c(N4CCCCC4)c(-c4ccccc4)nn3c2=O)cc1 [Compound 181, 6-(4-methoxyphenyl)-2-phenyl-3-(piperidin-1-yl)-5-(pyridin-2-ylamino)pyrazolo[1,5-a]pyrimidin-7(4H)-one]"
7,< 100,"O=c1c(-c2ccc3c(c2)NCCO3)c(Nc2ccccn2)[nH]c2c(-c3ccccc3)c(-c3ccccc3)nn12 [Compound 197, 6-(3,4-dihydro-2H-benzo[b][1,4]oxazin-6-yl)-2,3-diphenyl-5-(pyridin-2-ylamino) pyrazolo[1,5-a]pyrimidin-7(4H)-one]"
8,1000 to 10000,"Cc1[nH]c2c(-c3ccccc3)c(-c3ccncc3)nn2c(=O)c1-c1ccc2ncccc2c1 [Compound 348, 5-methyl-3-phenyl-2-(pyridin-4-yl)-6-(quinolin-6-yl)pyrazolo[1,5-a]pyrimidin-7(4H)-one]"
9,< 100,"Nc1[nH]c2c(-c3ccccc3)c(-c3ccccc3)nn2c(=O)c1-c1ccc(O)cc1 [Compound 276, 5-amino-6-(4-hydroxyphenyl)-2,3-diphenylpyrazolo[1,5-a]pyrimidin-7(4H)-one]"
10,100 to 1000,"COc1ccc(-c2c(Cn3ncnn3)[nH]c3c(-c4ccccc4)c(-c4ccccc4)nn3c2=O)cc1 [Compound 339, 5-((2H-tetrazol-2-yl)methyl)-6-(4-methoxyphenyl)-2,3-diphenylpyrazolo[1,5-a]pyrimidin-7(4H)-one]"
11,< 100,"COc1ccc(-c2c(C)[nH]c3c(C4=CCOCC4)c(-c4ccccc4)nn3c2=O)cc1 [Compound 218, 3-(3,6-dihydro-2H-pyran-4-yl)-6-(4-methoxyphenyl)-5-methyl-2-phenylpyrazolo[1,5-a]pyrimidin-7(4H)-one]"
12,1000 to 10000,"Cc1[nH]c2c(-c3ccccc3)c(-c3ccc([N+](=O)[O-])cc3)nn2c(=O)c1-c1ccc2ncccc2c1 [Compound 251, 5-methyl-2-(4-nitrophenyl)-3-phenyl-6-(quinolin-6-yl)pyrazolo[1,5-a]pyrimidin-7(4H)-one]"
13,100 to 1000,"Cc1[nH]c2c(-c3ccccc3)c(-c3ccccc3)nn2c(=O)c1-c1ccc2occc2c1 [Compound 334, 6-(benzofuran-5-yl)-5-methyl-2,3-diphenylpyrazolo[1,5-a]pyrimidin-7(4H)-one]"
14,< 100,"COc1ccc(-c2c(Nc3ncc[nH]3)[nH]c3c(-c4ccccc4)c(-c4ccccc4)nn3c2=O)cc1 [Compound 142, 5-((1H-imidazol-2-yl)amino)-6-(4-methoxyphenyl)-2,3-diphenylpyrazolo[1,5-a]pyrimidin-7(4H)-one]"
15,< 100,"COc1ccc(-c2c(Nc3nccn3C)[nH]c3c(-c4ccccc4)c(-c4ccccc4)nn3c2=O)cc1 [Compound 141, 6-(4-methoxyphenyl)-5-(1-methyl-1H-imidazol-2-ylamino)-2,3-diphenylpyrazolo[1,5-a]pyrimidin-7(4H)-one]"
16,< 100,"COc1ccc(-c2c(Nc3ccno3)[nH]c3c(-c4ccccc4)c(-c4ccccc4)nn3c2=O)cc1 [Compound 140, 5-(isoxazol-5-ylamino)-6-(4-methoxyphenyl)-2,3-diphenylpyrazolo[1,5-a]pyrimidin-7(4H)-one]"
17,< 100,"CCOC(=O)n1ccc(Nc2[nH]c3c(-c4ccccc4)c(-c4ccccc4)nn3c(=O)c2-c2ccc(OC)cc2)n1 [Compound 287, ethyl 3-((6-(4-methoxyphenyl)-7-oxo-2,3-diphenyl-4,7-dihydropyrazolo[1,5-a]pyrimidin-5-yl)amino)-1H-pyrazole-1-carboxylate]"
18,< 100,"COc1ccc(-c2c(Nc3ncns3)[nH]c3c(C4=CCCCC4)c(-c4ccccc4)nn3c2=O)cc1 [Compound 166, 5-((1,2,4-thiadiazol-5-yl)amino)-3-(cyclohex-1-en-1-yl)-6-(4-methoxyphenyl)-2-phenylpyrazolo[1,5-a]pyrimidin-7(4H)-one]"
19,< 100,"COc1ccc(-c2c(Nc3ccc(N)nn3)[nH]c3c(-c4ccccc4)c(-c4ccccc4)nn3c2=O)cc1 [Compound 123, 5-((6-aminopyridazin-3-yl)amino)-6-(4-methoxyphenyl)-2,3-diphenylpyrazolo[1,5-a]pyrimidin-7(4H)-one]"
20,< 100,"Cc1[nH]c2c(N3CCCCC3)c(-c3ccccc3)nn2c(=O)c1-c1ccc2ncccc2c1 [Compound 206, 5-methyl-2-phenyl-3-(piperidin-1-yl)-6-(quinolin-6-yl)pyrazolo[1,5-a]pyrimidin-7(4H)-one]"
21,< 100,"O=c1c(-c2ccc3ncccc3c2)c(Nc2ccn[nH]2)[nH]c2c(C3=CCCCC3)c(-c3ccccc3)nn12 [Compound 190, 5-((1H-pyrazol-5-yl)amino)-3-(cyclohex-1-en-1-yl)-2-phenyl-6-(quinolin-6-yl)pyrazolo[1,5-a]pyrimidin-7(4H)-one]"
22,< 100,"COc1ccc(-c2c(O)[nH]c3c(-c4ccccc4)c(-c4ccccc4)nn3c2=O)cc1 [Compound 290, 5-hydroxy-6-(4-methoxyphenyl)-2,3-diphenylpyrazolo[1,5-a]pyrimidin-7(4H)-one]"
23,< 100,"CNCc1[nH]c2c(-c3ccccc3)c(-c3ccccc3)nn2c(=O)c1-c1ccc2ncccc2c1 [Compound 278, 5-((methylamino)methyl)-2,3-diphenyl-6-(quinolin-6-yl)pyrazolo[1,5-a]pyrimidin-7(4H)-one]"
24,< 100,"COc1ccc(-c2c(Nc3ccc(Cl)cn3)[nH]c3c(-c4ccccc4)c(-c4ccccc4)nn3c2=O)cc1 [Compound 106, 5-((5-chloropyridin-2-yl)amino)-6-(4-methoxyphenyl)-2,3-diphenylpyrazolo[1,5-a]pyrimidin-7(4H)-one]"
25,100 to 1000,"Cc1[nH]c2c(N3CCCCC3)c(-c3ccccc3)nn2c(=O)c1-c1cccc(N)c1 [Compound 301, 6-(3-aminophenyl)-5-methyl-2-phenyl-3-(piperidin-1-yl)pyrazolo[1,5-a]pyrimidin-7(4H)-one]"
